Several values for one entry are separate records, joined by “and”; a condition that tells them apart may be missing. Equal values may be shown once.
Columns and labels:
[1] = molecular target: T1, PilF1–889 (full‐length PilF) (Thermus thermophilus, UniProt Q5SLC9); assay: ITC c‐di‐GMP binding, full‐length PilF; settings: 20 °C
T1 sequence (Q5SLC9 1-889): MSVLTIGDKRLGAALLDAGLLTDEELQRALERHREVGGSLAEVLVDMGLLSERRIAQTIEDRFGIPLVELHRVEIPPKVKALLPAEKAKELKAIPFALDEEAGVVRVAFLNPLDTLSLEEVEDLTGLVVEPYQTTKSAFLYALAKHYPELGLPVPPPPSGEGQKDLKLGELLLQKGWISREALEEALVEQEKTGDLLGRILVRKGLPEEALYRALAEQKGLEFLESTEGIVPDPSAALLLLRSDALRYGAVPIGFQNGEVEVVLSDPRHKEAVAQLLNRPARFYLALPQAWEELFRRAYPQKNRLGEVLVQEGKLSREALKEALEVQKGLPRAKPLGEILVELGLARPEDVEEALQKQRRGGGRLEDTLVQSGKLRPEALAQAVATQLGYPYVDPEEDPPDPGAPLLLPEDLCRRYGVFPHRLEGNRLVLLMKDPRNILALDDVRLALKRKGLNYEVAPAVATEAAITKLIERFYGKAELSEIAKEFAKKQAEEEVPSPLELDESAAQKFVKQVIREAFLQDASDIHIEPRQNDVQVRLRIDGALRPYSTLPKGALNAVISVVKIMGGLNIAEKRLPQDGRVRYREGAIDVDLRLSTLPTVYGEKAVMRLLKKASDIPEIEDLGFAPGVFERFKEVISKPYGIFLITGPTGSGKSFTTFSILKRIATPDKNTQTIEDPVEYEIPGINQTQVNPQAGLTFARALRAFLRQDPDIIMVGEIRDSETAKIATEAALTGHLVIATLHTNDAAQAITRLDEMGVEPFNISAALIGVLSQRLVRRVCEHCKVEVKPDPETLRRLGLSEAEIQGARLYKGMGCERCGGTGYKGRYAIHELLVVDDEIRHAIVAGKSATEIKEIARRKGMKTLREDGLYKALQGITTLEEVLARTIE

PilF1–154 (GSPII‐A) = assay: ITC c‐di‐GMP binding, isolated GSPII‐A domain; design: species or system Thermus thermophilus; settings: isolated PilF1–154
Procedure: (§1) The c‐di‐GMP binding capabilities of the various PilF1–154, PilF1–65 and PilF9–65 constructs were characterized by isothermal titration calorimetry (ITC) measurements in three independent titrations for each construct with detectable binding to c‐di‐GMP. All ITC‐measurements were carried out in 50 mM Tris‐HCl pH 7.5, 200 mM sodium chloride, 1 mM β‐mercaptoethanol at 20 °C using a MicroCal iTC200 instrument (Malvern Pananalytical, UK). In total 40 μl c‐di‐GMP was titrated to 270 μl protein after an initial delay of 120 s in 20 injections while stirring the sample with 750 rpm. The first injection of 0.2 μl c‐di‐GMP in 0.4 s was followed by 19 successive injections of 2 μl in 4 s separated by a 180 s delay using a reference power of 11 μcal^−1. The feedback mode was set to high. Protein and c‐di‐GMP concentrations ranged from 30 μM to 100 μM and 300 μM to 1000 μM, respectively, and were adjusted to the respective binding affinities of the corresponding constructs to optimize measurement precision. Processing of the thermograms was carried out with Origin 7.0 (OriginLab) using a one‐site binding model. An overview of all ITC measurements is given in Supplementary Table 1.

PilF1–65 F63Y [2] = assay: ITC c‐di‐GMP binding, N‐terminal subdomain; design: species or system Thermus thermophilus
Procedure: as §1

[3] = molecular target: T2, PilF1–65 F63Y H33Q S39R A41G I55L I59L R62Q (PilF1–65 F63Y mut6) (Thermus thermophilus, UniProt Q5SLC9, A41G/F63Y/H33Q/I55L/I59L/R62Q/S39R); assay: ITC c‐di‐GMP binding, PilF1–65 F63Y mut6
T2 sequence (Q5SLC9 1-65 H33Q/S39R/A41G/I55L/I59L/R62Q/F63Y): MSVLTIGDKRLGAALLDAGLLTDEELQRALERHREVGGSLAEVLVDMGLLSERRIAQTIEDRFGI
Procedure: as §1

[4] = molecular target: T3, PilF9–65 F63Y H33Q S39R A41G I55L I59L R62Q (PilF9–65 F63Y mut6) (Thermus thermophilus, UniProt Q5SLC9, A41G/F63Y/H33Q/I55L/I59L/R62Q/S39R); assay: ITC c‐di‐GMP binding, PilF9–65 F63Y mut6
T3 sequence (Q5SLC9 9-65 H33Q/S39R/A41G/I55L/I59L/R62Q/F63Y): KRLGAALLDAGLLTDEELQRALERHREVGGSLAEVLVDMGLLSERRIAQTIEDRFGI
Procedure: as §1

[5] = molecular target: T4, PilF9–65 F63Y H33Q S39R A41G R62Q (Thermus thermophilus, UniProt Q5SLC9, A41G/F63Y/H33Q/R62Q/S39R); assay: ITC c‐di‐GMP binding, PilF9–65 F63Y H33Q S39R A41G R62Q; settings: 20 °C
T4 sequence (Q5SLC9 9-65 H33Q/S39R/A41G/R62Q/F63Y): T3 sequence (Q5SLC9 9-65 H33Q/S39R/A41G/I55L/I59L/R62Q/F63Y)
Procedure: as §1

[6] = molecular target: T5, PilF9–65 F63Y H33Q S39R R62Q (Thermus thermophilus, UniProt Q5SLC9, F63Y/H33Q/R62Q/S39R); assay: ITC c‐di‐GMP binding, PilF9–65 F63Y H33Q S39R R62Q; settings: 20 °C
T5 sequence (Q5SLC9 9-65 H33Q/S39R/R62Q/F63Y): T3 sequence (Q5SLC9 9-65 H33Q/S39R/A41G/I55L/I59L/R62Q/F63Y)
Procedure: as §1

PilF9–65 F63Y H33Q R62Q = assay: ITC c‐di‐GMP binding, PilF9–65 F63Y H33Q R62Q; design: species or system Thermus thermophilus; settings: S39 reintroduced
Procedure: as §1

PilF1–154 = assay: NMR titration with c‐di‐GMP, PilF1–154; type: binding, Thermus thermophilus; settings: 10 equivalents of c‐di‐GMP, 45 °C
Procedure: (§2) For NMR experiments, all PilF1–154, PilF1–65 and PilF9–65 samples were prepared in a buffer containing 50 mM BisTris‐HCl pH 5.8, 200 mM NaCl, 1 mM β‐mercaptoethanol with the addition of 5 % (v/v) D2O. 200 μM 2,2‐dimethyl‐2‐silapentane‐5‐sulfonic acid (DSS) was used to directly reference the ^1H chemical shifts internally. With the appropriate conversion factors, the heteronuclear ^13C, ^15N and ^31P chemical shifts were referenced indirectly.[73] All spectra were processed and referenced with Bruker TopSpin™ versions 3.5 and 4.0.7. Chemical shifts were assigned in CARA.[74] NMR‐spectra were acquired on Bruker AVANCE 600, 700, 800, 900 and 950 MHz spectrometers equipped with cryogenic triple resonance probes at 45 °C for PilF1–154 constructs and at 20 °C for the PilF1–65 and the PilF9–65 constructs.
(§3) NMR titration experiments were carried out as ligand binding assays with uniformly ^15N labeled protein samples from 50 μM to 100 μM and unlabeled c‐di‐GMP. A series of ^15N‐HSQC, ^1H,^15N‐SOFAST‐HMQC or ^15N‐BEST‐TROSY‐HSQC spectra were recorded with increasing c‐di‐GMP concentrations (up to 1.4 mM) and chemical shift changes were evaluated with TopSpin™ 4.0.7.

[7] = tested on: PilF1–154 H33Q S39R A41G I55L I59L R62Q; assay: NMR titration with c‐di‐GMP, MshEN‐like PilF1–154 construct; type: binding, Thermus thermophilus; settings: 15 equivalents of c‐di‐GMP
Procedure: as §2, §3

PilF1–65 F63Y [8] = assay: NMR titration with c‐di‐GMP, PilF1–65 F63Y; type: binding, Thermus thermophilus
Procedure: as §2, §3

[9] = molecular target: T2, PilF1–65 F63Y H33Q S39R A41G I55L I59L R62Q (PilF1–65 F63Y mut6); assay: NMR titration with c‐di‐GMP, PilF1–65 F63Y mut6; type: binding; settings: high excess of ligand (10fold), 20 °C
Procedure: as §2, §3

[10] = molecular target: T5, PilF9–65 F63Y H33Q S39R R62Q; assay: NMR titration with c‐di‐GMP, PilF9–65 F63Y H33Q S39R R62Q; type: binding; settings: high excess of the ligand (15fold), 20 °C
Procedure: as §2, §3

MshEN = molecular target: MshEN; design: method as in PMID 27578558; settings: monomeric c‐di‐GMP; read-out: KD (affinity) for MshEN; cited from earlier work

## Nc1nc2c(ncn2C2OC3COP(=O)(O)OC4C(COP(=O)(O)OC3C2O)OC(n2cnc3c(=O)[nH]c(N)nc32)C4O)c(=O)[nH]1 (centres unmarked) [c‐di‐GMP, 3’→5’ cyclic dimeric guanosine monophosphate]
[1]; event 1
  ΔH (binding event 1): -11.763 ± 0.78 kcal/mol
  ΔS (binding event 1): -10.4 ± 2.7 cal/mol/deg
[1]; event 2
  ΔH (binding event 2): -15.683 ± 0.97 kcal/mol
  ΔS (binding event 2): -16.5 ± 2.2 cal/mol/deg
[1]; pH 7.5, PilF1–889, binding event 1, read-out: KD1 (first binding event)
  Kd: 324 nM
[1]; stoichiometry, event 1
  N (binding event 1): 0.72 ± 0.1
[1]; stoichiometry, event 2
  N (binding event 2): 0.59 ± 0.03
PilF1–154 (GSPII‐A)
  c‐di‐GMP binding in ITC: did not show any sign of c‐di‐GMP binding
PilF1–65 F63Y [2]
  c‐di‐GMP binding in ITC: not detectable
[3]; ITC, 20 °C
  N: 0.6 ± 0.2
  ΔH: -1.342 ± 0.513 kcal/mol
  ΔS: 17.1 ± 2.3 cal/mol/deg
[3]; ITC, 20 °C, pH 7.5, PilF1–65 F63Y mut6
  Kd: 13000 ± 2000 nM
[3]; at 20° C
  difference in the free energy of binding vs MshEN: ~ 1.9 kcal/mol
  difference in the free energy of binding vs N‐terminal subdomain (residue 1–62) of MshEN: ~2.3 kcal/mol
[4]; ITC, 20 °C
  N: 1.2 ± 0.1
  ΔH: -12.953 ± 0.441 kcal/mol
  ΔS: -17.9 ± 1.4 cal/mol/deg
[4]; ITC, 20 °C, pH 7.5, PilF9–65 F63Y mut6
  Kd: 695 ± 42 nM
[4]; at 20° C
  difference in the free energy of binding vs PilF1–65 F63Y mut6: 1.6 kcal/mol
[5]
  N: 0.8 ± 0.1
  ΔH: -10.127 ± 0.499 kcal/mol
  ΔS: -6.4 ± 1.7 cal/mol/deg
[5]; pH 7.5, PilF9–65 F63Y H33Q S39R A41G R62Q
  Kd: 1800 ± 300 nM
[6]
  N: 0.7 ± 0.1
  ΔH: -9.574 ± 0.243 kcal/mol
  ΔS: -3.6 ± 0.7 cal/mol/deg
[6]; pH 7.5, PilF9–65 F63Y H33Q S39R R62Q
  Kd: 19000 ± 6000 nM
PilF9–65 F63Y H33Q R62Q
  c‐di‐GMP binding activity in ITC: complete loss of c‐di‐GMP binding activity
PilF1–154
  chemical shift changes on adding c‐di‐GMP: does not cause any chemical shift changes
[7]
  c‐di‐GMP binding in NMR‐titration: no c‐di‐GMP binding
PilF1–65 F63Y [8]
  c‐di‐GMP binding in NMR titration: not detectable
[9]
  chemical shift changes on adding c‐di‐GMP: large chemical shift changes
[10]
  c‐di‐GMP binding in NMR titration: saturated ligand binding
MshEN
  Kd: 500 nM and ~500 nM
